Publication PMC10150366, “Discovery of an In Vivo Chemical Probe for BCL6 Inhibition by Optimization of Tricyclic Quinolinones” (Journal of Medicinal Chemistry, 2023)
Read-outs that look alike come from different tables or passages of the source.

Tests used:
NMDAR (1A/2B) [1] = target: T1, NMDAR (1A/2B) (Homo sapiens, UniProt Q05586+Q13224); assay: SAFETYscan Ion Channel NMDAR (1A/2B) Blocker; type: cell-based
Description: (§1) Supplement jm3c00155_si_002.xlsx, sheet "SAFETYScan" | column: RC50 (uM); Max Response

ADRA2A = target: T2, ADRA2A (Homo sapiens, UniProt P08913); assay: SAFETYscan cAMP ADRA2A Antagonist; type: cell-based
T2 sequence (P08913 1-465): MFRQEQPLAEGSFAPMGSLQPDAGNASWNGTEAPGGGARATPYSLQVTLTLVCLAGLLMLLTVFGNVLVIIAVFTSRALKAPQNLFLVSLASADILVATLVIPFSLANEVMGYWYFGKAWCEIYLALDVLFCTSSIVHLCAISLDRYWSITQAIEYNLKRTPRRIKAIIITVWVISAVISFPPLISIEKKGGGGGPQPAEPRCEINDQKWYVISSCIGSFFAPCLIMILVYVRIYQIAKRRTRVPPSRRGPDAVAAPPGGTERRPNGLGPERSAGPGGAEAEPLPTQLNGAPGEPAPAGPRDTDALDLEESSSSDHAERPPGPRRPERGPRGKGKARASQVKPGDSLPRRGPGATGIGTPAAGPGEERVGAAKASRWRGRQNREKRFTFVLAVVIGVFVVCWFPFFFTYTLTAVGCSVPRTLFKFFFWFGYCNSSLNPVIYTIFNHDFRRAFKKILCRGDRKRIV
Description: as §1

OPRM1 = OPRM1 (Homo sapiens, UniProt P35372); assay: SAFETYscan cAMP OPRM1 Antagonist; type: cell-based
Description: (§2) Supplement jm3c00155_si_002.xlsx, sheet "SAFETYScan" | column: RC50 (uM); Hill; Max Response

ADRB2 [2] = target: T3, ADRB2 (Homo sapiens, UniProt P07550); assay: SAFETYscan cAMP ADRB2 Antagonist; type: cell-based
Description: as §2

DRD2S = DRD2S (Homo sapiens, UniProt P14416); assay: SAFETYscan cAMP DRD2S Antagonist; type: cell-based
Description: as §1

NMDAR (1A/2B) [3] = target: T1, NMDAR (1A/2B); assay: SAFETYscan Ion Channel NMDAR (1A/2B) Opener; type: cell-based
Description: as §1

PDE3A = PDE3A (Homo sapiens, UniProt Q14432); assay: SAFETYscan Enzymatic PDE3A Inhibitor; type: biochemical
Description: as §1

ADRB2 [4] = target: T3, ADRB2; assay: SAFETYscan cAMP ADRB2 Agonist; type: cell-based
Description: as §1

AVPR1A [5] = target: T4, AVPR1A (Homo sapiens, UniProt P37288); assay: SAFETYscan Calcium Flux AVPR1A Agonist; type: cell-based
Description: as §1

INSR = INSR (Homo sapiens, UniProt P06213); assay: SAFETYscan Kinases Binding INSR Inhibitor
Description: as §1

NET = NET (Homo sapiens, UniProt P23975); assay: SAFETYscan Transporter NET Blocker; type: cell-based
Description: as §1

OPRD1 = OPRD1 (Homo sapiens, UniProt P41143); assay: SAFETYscan cAMP OPRD1 Antagonist; type: cell-based
Description: as §1

human BCL6 BTB domain = human BCL6 BTB domain (Homo sapiens, UniProt P41182); assay: BCL6 TR-FRET assay; type: binding
Experimental: 1. Supplementary experimental: protein production, purification and crystallography 1.1 BCL6 constructs used for assays and crystallography […]
cleavage site. For the TR-FRET assay, the Trx-6His-HRV3C-BCL6 protein construct was used without cleaving the tag, as a 6His was needed to bind to the anti-6His-Terbium antibody. […]
For both plasmid constructs described above, transformed BL21-AI E. coli cells were grown in LB media […]
Expression was carried out at 18 °C for 18 hours. Cells were harvested by centrifugation (5500 g for 30 minutes at 4 °C) and stored at -80 °C.
Cells were re-suspended in a buffer composed of 20 mM Tris pH 8, 250 mM NaCl, 1 mM MgCl2, 0.5 mM […]
lysed by sonication followed by centrifugation at 21,000 g for 45 minutes at 4 °C. […]
ResourceQ and gel filtration using a HiLoad 26/60 Superdex75 column in a buffer containing 20 mM HEPES […]
The final protein was assessed for purity and molar mass by SDS-PAGE and high-resolution mass spectrometry, respectively.
For the uncleaved Trx-6His-HRV3C-BCL6 protein construct to be used in TR-FRET, the protein was directly eluted from the HisTrap FF column without HRV-3C treatment, and submitted to Superdex75 gel filtration […]
Test compounds in DMSO or DMSO alone […]
concentration in 0.7% v/v DMSO final. […]

HTR2A = HTR2A (Homo sapiens, UniProt P28223); assay: SAFETYscan Calcium Flux HTR2A Antagonist; type: cell-based
Description: as §1

AChE = AChE (Homo sapiens, UniProt P22303); assay: SAFETYscan Enzymatic AChE Inhibitor; type: biochemical
Description: as §1

kinase panel (468) [6] = target: kinase panel (468) (Homo sapiens, UniProt P00519, H396P); assay: KINOMEscan scanMAX kinase panel (468); type: binding
kinase panel (468) [7] = assay: KINOMEscan scanMAX kinase panel (468); type: binding; settings: for Percent Control: 10000 nM
ROCK1 = ROCK1 (Homo sapiens, UniProt Q13464); assay: SAFETYscan Kinases Binding ROCK1 Inhibitor
Description: as §1

GABAA = GABAA (Homo sapiens, UniProt P14867+P18507+P47870); assay: SAFETYscan Ion Channel GABAA Opener; type: cell-based
Description: as §1

AVPR1A [8] = target: T4, AVPR1A; assay: SAFETYscan Calcium Flux AVPR1A Antagonist; type: cell-based
Description: as §1

ADORA2A = ADORA2A (Homo sapiens, UniProt P29274); assay: SAFETYscan Calcium Flux ADORA2A Antagonist; type: cell-based
Description: as §1

T1 sequence (Q13224 27-1484, other chains not shown): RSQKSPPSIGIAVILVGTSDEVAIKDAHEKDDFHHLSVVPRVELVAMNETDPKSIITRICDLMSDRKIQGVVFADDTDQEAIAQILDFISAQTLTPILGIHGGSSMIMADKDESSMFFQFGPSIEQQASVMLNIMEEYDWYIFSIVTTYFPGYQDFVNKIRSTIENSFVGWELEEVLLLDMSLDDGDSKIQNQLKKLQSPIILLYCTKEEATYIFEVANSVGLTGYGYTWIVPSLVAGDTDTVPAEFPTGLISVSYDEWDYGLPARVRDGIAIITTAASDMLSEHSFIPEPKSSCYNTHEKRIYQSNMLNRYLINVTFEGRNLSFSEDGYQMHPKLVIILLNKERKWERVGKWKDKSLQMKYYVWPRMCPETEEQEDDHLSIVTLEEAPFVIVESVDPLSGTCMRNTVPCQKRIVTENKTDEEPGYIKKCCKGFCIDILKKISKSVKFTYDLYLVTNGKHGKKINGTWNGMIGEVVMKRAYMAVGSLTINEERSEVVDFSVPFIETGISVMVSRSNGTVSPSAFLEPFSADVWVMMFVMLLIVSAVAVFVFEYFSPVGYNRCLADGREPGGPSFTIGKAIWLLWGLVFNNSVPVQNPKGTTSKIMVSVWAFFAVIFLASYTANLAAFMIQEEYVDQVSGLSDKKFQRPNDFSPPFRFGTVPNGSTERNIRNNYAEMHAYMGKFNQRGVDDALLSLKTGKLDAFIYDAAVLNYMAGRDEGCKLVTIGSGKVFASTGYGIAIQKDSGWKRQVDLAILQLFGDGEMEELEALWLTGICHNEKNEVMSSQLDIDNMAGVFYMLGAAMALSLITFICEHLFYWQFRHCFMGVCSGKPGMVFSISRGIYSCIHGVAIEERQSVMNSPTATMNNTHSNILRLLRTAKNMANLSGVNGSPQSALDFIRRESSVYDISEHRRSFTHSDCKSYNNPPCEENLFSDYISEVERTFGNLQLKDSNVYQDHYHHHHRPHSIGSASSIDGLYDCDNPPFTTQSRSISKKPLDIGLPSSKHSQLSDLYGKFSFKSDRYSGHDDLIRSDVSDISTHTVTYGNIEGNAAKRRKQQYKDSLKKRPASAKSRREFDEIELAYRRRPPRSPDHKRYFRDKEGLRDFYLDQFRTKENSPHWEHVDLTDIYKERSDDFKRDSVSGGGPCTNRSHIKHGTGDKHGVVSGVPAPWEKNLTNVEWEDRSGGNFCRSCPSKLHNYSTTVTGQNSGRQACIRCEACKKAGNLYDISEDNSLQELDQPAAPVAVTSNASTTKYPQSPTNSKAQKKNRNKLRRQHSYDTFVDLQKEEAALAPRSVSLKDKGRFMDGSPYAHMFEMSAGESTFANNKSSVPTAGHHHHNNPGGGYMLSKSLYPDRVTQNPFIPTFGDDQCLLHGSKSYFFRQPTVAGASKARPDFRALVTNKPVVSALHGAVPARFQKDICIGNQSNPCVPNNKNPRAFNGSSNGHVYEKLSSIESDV
T3 sequence (P07550 whole entry): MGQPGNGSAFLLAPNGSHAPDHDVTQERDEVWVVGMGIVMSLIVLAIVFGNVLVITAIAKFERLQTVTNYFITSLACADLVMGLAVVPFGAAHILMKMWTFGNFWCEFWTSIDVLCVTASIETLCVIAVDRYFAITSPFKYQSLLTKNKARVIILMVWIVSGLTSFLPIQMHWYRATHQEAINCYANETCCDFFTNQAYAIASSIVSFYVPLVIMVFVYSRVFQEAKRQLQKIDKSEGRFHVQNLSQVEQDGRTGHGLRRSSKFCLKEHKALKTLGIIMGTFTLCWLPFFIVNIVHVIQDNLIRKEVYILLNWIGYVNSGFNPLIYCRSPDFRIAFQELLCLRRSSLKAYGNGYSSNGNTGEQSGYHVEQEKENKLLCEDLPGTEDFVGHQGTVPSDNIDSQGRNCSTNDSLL
Chain of OPRM1 (P35372 whole entry): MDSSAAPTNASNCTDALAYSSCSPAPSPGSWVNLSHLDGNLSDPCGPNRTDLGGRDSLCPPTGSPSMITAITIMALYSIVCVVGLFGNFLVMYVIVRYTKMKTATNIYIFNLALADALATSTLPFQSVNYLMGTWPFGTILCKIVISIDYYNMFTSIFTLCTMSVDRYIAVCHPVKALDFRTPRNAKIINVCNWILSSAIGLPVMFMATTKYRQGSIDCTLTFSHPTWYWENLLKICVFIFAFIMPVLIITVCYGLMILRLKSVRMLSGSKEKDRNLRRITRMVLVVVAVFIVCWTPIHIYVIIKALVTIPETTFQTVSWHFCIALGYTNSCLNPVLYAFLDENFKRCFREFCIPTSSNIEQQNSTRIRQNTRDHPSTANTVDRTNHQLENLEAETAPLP
T4 sequence (P37288 whole entry): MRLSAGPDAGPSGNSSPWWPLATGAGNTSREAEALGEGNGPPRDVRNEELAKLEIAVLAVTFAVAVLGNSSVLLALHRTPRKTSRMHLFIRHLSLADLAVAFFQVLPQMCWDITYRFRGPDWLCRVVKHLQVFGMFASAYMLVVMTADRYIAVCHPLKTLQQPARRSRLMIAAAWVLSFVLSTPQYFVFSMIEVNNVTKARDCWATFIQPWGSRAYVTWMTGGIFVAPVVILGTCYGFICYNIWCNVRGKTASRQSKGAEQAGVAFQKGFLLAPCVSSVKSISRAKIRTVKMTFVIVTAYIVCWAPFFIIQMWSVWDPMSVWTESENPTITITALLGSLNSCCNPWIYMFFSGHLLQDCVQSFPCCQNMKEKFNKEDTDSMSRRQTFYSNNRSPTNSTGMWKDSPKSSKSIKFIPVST
Chain of OPRD1 (P41143 whole entry): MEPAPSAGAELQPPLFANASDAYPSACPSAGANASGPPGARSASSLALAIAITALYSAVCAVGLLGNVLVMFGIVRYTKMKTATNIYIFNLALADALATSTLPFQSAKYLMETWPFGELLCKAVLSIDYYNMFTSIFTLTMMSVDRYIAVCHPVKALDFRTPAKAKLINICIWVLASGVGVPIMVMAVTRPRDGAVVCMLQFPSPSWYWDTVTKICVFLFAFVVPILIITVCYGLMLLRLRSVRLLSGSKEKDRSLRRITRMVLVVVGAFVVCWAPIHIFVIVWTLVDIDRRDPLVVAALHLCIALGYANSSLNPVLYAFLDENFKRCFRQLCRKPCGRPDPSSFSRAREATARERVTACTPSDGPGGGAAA
Chain of NET (P23975 whole entry): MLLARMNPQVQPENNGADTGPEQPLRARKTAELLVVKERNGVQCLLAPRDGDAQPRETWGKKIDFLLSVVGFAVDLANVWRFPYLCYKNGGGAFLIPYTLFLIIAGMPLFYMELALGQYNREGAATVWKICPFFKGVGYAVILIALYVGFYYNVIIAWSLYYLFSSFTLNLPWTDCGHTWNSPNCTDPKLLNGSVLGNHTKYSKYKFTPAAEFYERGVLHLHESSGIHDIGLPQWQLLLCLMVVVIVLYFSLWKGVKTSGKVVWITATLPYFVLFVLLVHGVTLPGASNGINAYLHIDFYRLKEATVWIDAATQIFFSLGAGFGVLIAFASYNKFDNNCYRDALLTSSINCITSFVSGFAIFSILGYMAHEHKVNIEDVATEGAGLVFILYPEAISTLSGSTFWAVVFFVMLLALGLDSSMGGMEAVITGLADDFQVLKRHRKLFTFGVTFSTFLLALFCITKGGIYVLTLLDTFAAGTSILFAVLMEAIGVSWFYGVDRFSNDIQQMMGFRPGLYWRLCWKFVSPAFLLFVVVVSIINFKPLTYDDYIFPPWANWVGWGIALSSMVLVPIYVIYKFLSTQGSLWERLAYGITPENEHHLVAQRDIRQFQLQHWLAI
Chain of ADORA2A (P29274 whole entry): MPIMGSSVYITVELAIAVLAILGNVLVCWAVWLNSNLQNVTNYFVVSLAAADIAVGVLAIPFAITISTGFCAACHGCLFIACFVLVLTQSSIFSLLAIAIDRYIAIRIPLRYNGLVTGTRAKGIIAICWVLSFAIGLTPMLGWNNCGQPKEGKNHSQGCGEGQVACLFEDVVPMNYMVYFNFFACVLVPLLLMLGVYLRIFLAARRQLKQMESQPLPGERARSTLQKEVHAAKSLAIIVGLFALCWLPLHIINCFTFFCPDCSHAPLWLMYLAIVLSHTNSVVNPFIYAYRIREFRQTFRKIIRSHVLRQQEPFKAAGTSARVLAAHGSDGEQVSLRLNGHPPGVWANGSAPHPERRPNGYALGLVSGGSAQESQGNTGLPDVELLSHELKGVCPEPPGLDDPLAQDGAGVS
Chain of HTR2A (P28223 whole entry): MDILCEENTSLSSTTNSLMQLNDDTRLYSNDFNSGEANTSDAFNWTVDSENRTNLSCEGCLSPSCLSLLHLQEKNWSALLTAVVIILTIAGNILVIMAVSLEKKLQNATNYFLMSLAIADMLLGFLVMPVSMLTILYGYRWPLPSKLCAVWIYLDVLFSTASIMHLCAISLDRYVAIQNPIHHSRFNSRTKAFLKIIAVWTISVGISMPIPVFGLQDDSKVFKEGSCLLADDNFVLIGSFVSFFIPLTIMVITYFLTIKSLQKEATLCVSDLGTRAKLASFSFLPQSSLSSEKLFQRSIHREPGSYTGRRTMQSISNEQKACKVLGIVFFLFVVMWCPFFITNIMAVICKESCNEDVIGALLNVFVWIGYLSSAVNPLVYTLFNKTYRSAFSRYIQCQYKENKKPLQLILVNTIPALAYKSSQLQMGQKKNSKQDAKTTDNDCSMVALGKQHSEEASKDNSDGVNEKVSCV
Chain of DRD2S (P14416 1-414 isoform P14416-2): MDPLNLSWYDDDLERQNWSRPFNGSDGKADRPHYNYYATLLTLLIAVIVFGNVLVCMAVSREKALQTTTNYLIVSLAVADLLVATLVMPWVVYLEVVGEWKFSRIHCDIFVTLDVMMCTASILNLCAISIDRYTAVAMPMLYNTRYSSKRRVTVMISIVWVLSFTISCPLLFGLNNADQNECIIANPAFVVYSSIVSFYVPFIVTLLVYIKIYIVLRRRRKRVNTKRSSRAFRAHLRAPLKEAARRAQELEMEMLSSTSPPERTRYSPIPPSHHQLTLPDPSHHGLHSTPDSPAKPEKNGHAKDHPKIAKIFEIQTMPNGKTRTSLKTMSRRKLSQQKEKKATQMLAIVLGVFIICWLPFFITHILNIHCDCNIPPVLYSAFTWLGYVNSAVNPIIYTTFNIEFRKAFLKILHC

Compound: Cn1c(=O)c2c(c3cc(Nc4ccnc(F)c4Cl)ccc31)N[C@@H](C1CC1)C(F)(F)CO2 [compound 17, (S)-10-((3-chloro-2-fluoropyridin-4-yl)amino)-2-cyclopropyl-3,3-difluoro-7-methyl-1,2,3,4-tetrahydro-[1,4]oxazepino[2,3-c]quinolin-6(7H)-one]
- IC50 (NMDAR (1A/2B) [1]): > 10 µM
- Emax (NMDAR (1A/2B) [1]; NMDAR (1A/2B), Ion Channel, Blocker, read-out: Max Response): 0%
- IC50 (ADRA2A): > 10 µM
- Emax (ADRA2A; ADRA2A, cAMP, Antagonist, read-out: Max Response): 0%
- IC50 (OPRM1): 4.36 µM
- Hill (OPRM1; OPRM1, cAMP, Antagonist): 0.72
- Emax (OPRM1; OPRM1, cAMP, Antagonist, read-out: Max Response): 56.3%
- Hill (ADRB2 [2]): 1.29
- Emax (ADRB2 [2]; read-out: Max Response): 89%
- IC50 (ADRB2 [2]; read-out: RC50 (IC50)): 1.77 µM
- IC50 (DRD2S): > 10 µM
- Emax (DRD2S; DRD2S, cAMP, Antagonist, read-out: Max Response): 0%
- EC50 (NMDAR (1A/2B) [3]): > 10 µM
- Emax (NMDAR (1A/2B) [3]; NMDAR (1A/2B), Ion Channel, Opener, read-out: Max Response): 0.2%
- Emax (PDE3A; read-out: Max Response): 2.67%
- IC50 (PDE3A; read-out: RC50 (IC50)): > 10 µM
- Emax (ADRB2 [4]; read-out: Max Response): 0%
- EC50 (ADRB2 [4]; read-out: RC50 (EC50)): > 10 µM
- Emax (AVPR1A [5]; read-out: Max Response): 0%
- EC50 (AVPR1A [5]; read-out: RC50 (EC50)): > 10 µM
- Emax (INSR; read-out: Max Response): 0%
- IC50 (INSR; read-out: RC50 (IC50)): > 10 µM
- IC50 (NET): > 10 µM
- Emax (NET; NET, Transporter, Blocker, read-out: Max Response): 0%
- IC50 (OPRD1): > 10 µM
- Emax (OPRD1; OPRD1, cAMP, Antagonist, read-out: Max Response): 46%
- BCL6 TR-FRET pIC50 mean (human BCL6 BTB domain; Table S1): 8.2095
- IC90 (human BCL6 BTB domain; Table S1, read-out: BCL6 TR-FRET IC90 Geometric Mean): 0.0567 µM
- IC50 (human BCL6 BTB domain; geometric mean of at least three replicates, read-out: BCL6 TR-FRET IC50): 0.006 µM
- IC50 (human BCL6 BTB domain; supplement, read-out: BCL6 TR-FRET IC50 Geometric Mean): 0.0062 µM
- IC50 (HTR2A): > 10 µM
- Emax (HTR2A; HTR2A, Calcium Flux, Antagonist, read-out: Max Response): 5.28%
- Emax (AChE; read-out: Max Response): 9.89%
- IC50 (AChE; read-out: RC50 (IC50)): > 10 µM
- Percent Control (kinase panel (468) [6]): 84%
- kinase panel (468) outcome (kinase panel (468) [7]): selective activity and minimal off-target interactions
- Percent Control (kinase panel (468) [7]; EGFR(L747-E749del, A750P)): 93%
- Percent Control (kinase panel (468) [7]; EGFR(L747-S752del, P753S)): 67%
- Percent Control (kinase panel (468) [7]; EGFR(L747-T751del,Sins)): 100%
- Percent Control (kinase panel (468) [7]; FLT3(ITD)): 98%
- Percent Control (kinase panel (468) [7]; FLT3(ITD,D835V)): 100%
- Percent Control (kinase panel (468) [7]; FLT3(ITD,F691L)): 100%
- Emax (ROCK1; read-out: Max Response): 0%
- IC50 (ROCK1; read-out: RC50 (IC50)): > 10 µM
- EC50 (GABAA): > 10 µM
- Emax (GABAA; GABAA, Ion Channel, Opener, read-out: Max Response): 1.24%
- Emax (AVPR1A [8]; read-out: Max Response): 2.15%
- IC50 (AVPR1A [8]; read-out: RC50 (IC50)): > 10 µM
- Emax (ADORA2A; read-out: Max Response): 10.4%
- IC50 (ADORA2A; read-out: RC50 (IC50)): > 10 µM
